# Results as given in ChEMBL document CHEMBL1131118, “Inhibition of monoamine oxidase-B by condensed pyridazines and pyrimidines: effects of lipophilicity and structure-activity relationships” (J Med Chem, 1998).
# Columns and labels:
# [1] = molecular target: T1, Amine oxidase [flavin-containing] A (Rattus norvegicus, UniProt P21396); experiment: Inhibitory activity against Monoamine oxidase A from rat brain mitochondria at 50 uM
# T1 sequence (P21396 whole entry): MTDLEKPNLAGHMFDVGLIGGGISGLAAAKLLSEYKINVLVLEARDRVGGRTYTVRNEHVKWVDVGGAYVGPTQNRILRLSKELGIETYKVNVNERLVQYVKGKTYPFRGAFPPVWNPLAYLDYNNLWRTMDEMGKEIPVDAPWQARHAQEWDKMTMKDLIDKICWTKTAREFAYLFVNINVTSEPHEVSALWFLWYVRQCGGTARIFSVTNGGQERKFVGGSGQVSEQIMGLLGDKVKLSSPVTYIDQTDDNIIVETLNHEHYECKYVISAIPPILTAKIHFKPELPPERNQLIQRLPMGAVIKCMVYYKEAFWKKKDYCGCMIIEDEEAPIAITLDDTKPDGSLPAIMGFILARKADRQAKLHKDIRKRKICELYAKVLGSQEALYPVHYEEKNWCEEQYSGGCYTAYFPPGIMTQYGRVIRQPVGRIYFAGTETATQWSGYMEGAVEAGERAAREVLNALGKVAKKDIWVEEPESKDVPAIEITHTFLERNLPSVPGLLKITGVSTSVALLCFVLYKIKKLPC
# [2] = molecular target: T2, Amine oxidase [flavin-containing] B (Rattus norvegicus, UniProt P19643); experiment: Inhibitory activity against Monoamine oxidase B from rat brain mitochondria at 50 uM
# T2 sequence (P19643 whole entry): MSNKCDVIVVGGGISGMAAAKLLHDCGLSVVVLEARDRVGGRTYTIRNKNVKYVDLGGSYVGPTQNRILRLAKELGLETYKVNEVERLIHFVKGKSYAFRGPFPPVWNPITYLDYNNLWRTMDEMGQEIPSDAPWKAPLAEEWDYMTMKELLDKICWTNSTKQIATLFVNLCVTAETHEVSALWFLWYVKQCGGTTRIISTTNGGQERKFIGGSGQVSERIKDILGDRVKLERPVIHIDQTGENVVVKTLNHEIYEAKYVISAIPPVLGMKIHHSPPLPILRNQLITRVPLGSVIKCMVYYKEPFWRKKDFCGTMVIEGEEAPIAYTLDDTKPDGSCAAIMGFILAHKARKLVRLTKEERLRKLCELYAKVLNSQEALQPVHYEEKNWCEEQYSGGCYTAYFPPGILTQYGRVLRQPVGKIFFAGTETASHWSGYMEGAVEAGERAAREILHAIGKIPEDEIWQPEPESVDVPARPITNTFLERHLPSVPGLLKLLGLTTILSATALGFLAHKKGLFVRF
# [3] = Partition coefficient (logP) (cyclohexane); details: octanol/water
# [4] = Partition coefficient (logP); details: octanol/water
# [5] = molecular target: T2, Amine oxidase [flavin-containing] B; experiment: Inhibitory activity against Monoamine oxidase B from rat brain mitochondria
# [6] = molecular target: T1, Amine oxidase [flavin-containing] A; experiment: Inhibitory activity against Monoamine oxidase A from rat brain mitochondria at 100 uM
# [7] = molecular target: T2, Amine oxidase [flavin-containing] B; experiment: Inhibitory activity against Monoamine oxidase B from rat brain mitochondria at 100 uM
# [8] = molecular target: T1, Amine oxidase [flavin-containing] A; experiment: Inhibitory activity against Monoamine oxidase A from rat brain mitochondria at 5 uM
# [9] = molecular target: T2, Amine oxidase [flavin-containing] B; experiment: Inhibitory activity against Monoamine oxidase B from rat brain mitochondria at 5 uM
# [10] = molecular target: T1, Amine oxidase [flavin-containing] A; experiment: Inhibitory activity against Monoamine oxidase A from rat brain mitochondria
# [11] = molecular target: T2, Amine oxidase [flavin-containing] B
# Description: Inhibitory activity against Monoamine oxidase B from rat brain mitochondria at 125 uM
# [12] = molecular target: T2, Amine oxidase [flavin-containing] B; experiment: Inhibitory activity against Monoamine oxidase B from rat brain mitochondria at 10 uM
# [13] = molecular target: T2, Amine oxidase [flavin-containing] B; experiment: Inhibitory activity against Monoamine oxidase B
# [14] = molecular target: T1, Amine oxidase [flavin-containing] A
# Description: Inhibitory activity against Monoamine oxidase A from rat brain mitochondria at 25 uM
SMILES,logP [3],logP [4],also measured
c1ccc(-c2cc3c(nn2)CCC3)cc1,–,–,inhibition at 50 µM [1]: 44%; inhibition at 50 µM [2]: 12%
Cc1c(-c2ccccc2)nnc2c1C(=O)c1ccccc1-2,2.16,> 3,–
O=C1c2ccccc2-c2nnccc21,-0.29,1.22,–
O=C(c1ccccc1)c1ccnnc1,-0.45,1.09,inhibition at 100 µM [6]: 18%; inhibition at 100 µM [7]: 29%
c1ccc(-c2cc3[nH]c4ccccc4c3nn2)cc1,–,–,inhibition at 5 µM [8]: 0%; inhibition at 5 µM [9]: 0%
O=c1[nH]c(=O)c2cc(-c3ccccc3)nnc2[nH]1,-2.22,1.56,IC50 [10]: 16.4 µM; inhibition at 125 µM [11]: 32%
O=C1c2ccccc2-c2nncc(-c3ccccc3)c21,1.4,2.8,–
O=C1c2ccccc2-c2cnc(-c3ccccc3)nc21,–,–,IC50 [10]: 2.37 µM; IC50 [5]: 11.6 µM
O=C1c2ccccc2-c2nnc(C(F)(F)F)cc21,0.7,2.21,–
O=C1c2ccccc2-c2nc(-c3ccccc3)ncc21,3.15,> 3,IC50 [10]: 8.39 µM; inhibition at 10 µM [12]: 28%; IC50 [5]: 11.5 µM
O=c1[nH]c(=O)c2cc(-c3ccc(C(F)(F)F)cc3)nnc2[nH]1,–,–,inhibition at 5 µM [8]: 15%; inhibition at 5 µM [9]: 12.5%
O=C1CCCc2nnc(-c3ccccc3)cc21,0.6,2.05,IC50 [10]: 59.1 µM; IC50 [13]: 74.1 µM; IC50 [5]: 74.8 µM

# Further lines, with some results ahead:
logP [3],logP [4],SMILES,also measured
1.66,> 3,O=C1c2ccccc2-c2nnc(-c3cccc([N+](=O)[O-])c3)cc21,IC50 [5]: 0.631 µM
1.05,2.64,O=C1c2ccccc2-c2nnc(-c3ccccc3[N+](=O)[O-])cc21,–
2.34,> 3,O=C1c2ccccc2-c2nnc(-c3ccc([N+](=O)[O-])cc3)cc21,–
2.51,> 3,COc1ccc(-c2cc3c(nn2)-c2ccccc2C3=O)cc1,–
2.83,> 3,COc1cccc(-c2cc3c(nn2)-c2ccccc2C3=O)c1,–
2.26,> 3,COc1ccccc1-c1cc2c(nn1)-c1ccccc1C2=O,–
0.13,2.88,O=C1c2ccccc2-c2nnc(-c3ccc(O)cc3)cc21,–
2.55,3.15,O=C1c2ccccc2-c2nnc(-c3ccccc3O)cc21,–
2.07,> 3,O=C1c2ccccc2-c2nnc(-c3ccccc3F)cc21,–
2.56,> 3,O=C1c2ccccc2-c2nnc(-c3ccc(F)cc3)cc21,–
-0.04,1.58,Cc1cc2c(nn1)-c1ccccc1C2=O,–
2.34,> 3,O=C1c2ccccc2-c2nnc(-c3ccccc3)cc21,inhibition at 25 µM [14]: 0%
